{
  "source": "patent US20260158111A1",
  "about": "“USE OF TGF IN THE PREVENTION VIRUS INFECTION OF THE RESPIRATORY TRACT” (FrieslandCampina Nederland B.V., priority 2021, published 2026)",
  "system": "Detroit D562 cells",
  "test": "Airway epithelial cells pretreated with component, then stimulated with viral infection proxy poly I:C; cytokine ELISA of supernatant",
  "format": "cell-based",
  "details": "Example 7; Galunisertib alone 100 nM",
  "description": "Detroit […] cells (ATCC-CCL138) were cultured in a T75 flask (Corning cat. No. 430641) in minimum essential medium (MEM, Invitrogen Catalog No. 21090-022) with 1× non-essential amino acids (Invitrogen cat. No. 11140-035), 10 mM sodium pyruvate (Invitrogen cat. No. 11360-039), 2 mM glutamax (Invitrogen cat. No. 35050-038), 1000 U/ml antibiotics penicillin, 1000 μg/ml […] and 10% serum (Hyclone, GE healthcare Life Sciences, lot. No. RB35936), henceforth called 10% complete medium with serum (CMS). Cells were trypsinized when confluency of 80% or greater was achieved, using 3 ml of Trypsin-EDTA (Invitrogen, cat. No. 25200-056) and resuspended into 12 ml of 10% CMS. Cells were counted and seeded at 6*10^4 cells/ml in three 24-well tissue culture treated plate (Corning cat. No. 3527) with 1 ml per well. These were cultured for one week till confluent. […] All the components were calibrated on protein concentration and added on cells at the calculated total protein concertation of 1 mg/ml on dry matter. […] ELISA kits from R&D Systems (Biotechne) were used to quantify cytokines IL-8/CXCL8 (DY208), IL-6 (DY206), TNF-α (DY210) and IFN-λ1/3 (DY1598B) according to the manufacturer's guidelines. Absorbance was measured at 450 nm and corrected for at 570 nm using the Biorad iMark plate reader & Imark software version 6.2. Cytokines were quantified before and after the addition of poly I:C.",
  "data": [
    {"molecule": "Cc1cccc(-c2nn3c(c2-c2ccnc4ccc(C(N)=O)cc24)CCC3)n1", "note": "[Galunisertib]", "values": [
      {"measurement": "effect of Galunisertib alone on the cells", "value": "had no effect on the cells"}
    ]}
  ]
}
